# Reference: publication PMC6199744, “Development of Chemical Proteomics for the Folateome and Analysis of the Kinetoplastid Folateome” (ACS Infectious Diseases, 2018)
# Where two headings read alike, the source gives them in different places.
# How the values were obtained:
# Format in all cases: binding
# [1] = molecular target: T1, HeLa cell extract proteins (Homo sapiens, UniProt P14314); details: HeLa; protein PRKCSH (CDNA FLJ59211, HIGHLY SIMILAR TO GLUCOSIDASE 2 SUBUNIT BETA.)
# T1 construct: endogenous in cells; host or cells: HeLa cell extract
# T1 sequence (P14314 15-528): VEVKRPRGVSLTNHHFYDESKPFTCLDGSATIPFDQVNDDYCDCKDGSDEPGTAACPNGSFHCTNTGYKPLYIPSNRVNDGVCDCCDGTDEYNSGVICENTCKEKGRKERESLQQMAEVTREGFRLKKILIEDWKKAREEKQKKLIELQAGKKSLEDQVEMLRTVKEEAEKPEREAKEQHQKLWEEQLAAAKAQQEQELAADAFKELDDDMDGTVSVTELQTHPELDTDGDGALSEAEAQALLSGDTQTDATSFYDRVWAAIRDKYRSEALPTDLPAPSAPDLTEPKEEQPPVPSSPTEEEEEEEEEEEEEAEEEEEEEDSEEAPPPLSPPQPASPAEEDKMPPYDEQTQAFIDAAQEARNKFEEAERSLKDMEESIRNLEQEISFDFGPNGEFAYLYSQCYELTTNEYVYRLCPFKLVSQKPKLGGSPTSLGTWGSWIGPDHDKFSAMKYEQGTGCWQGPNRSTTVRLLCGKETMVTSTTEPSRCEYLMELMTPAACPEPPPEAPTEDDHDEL
# [2] = molecular target: T2, HeLa cell extract proteins (Homo sapiens, UniProt P55884); details: protein EIF3B; HeLa
# T2 construct: endogenous in cells; host or cells: HeLa cell extract
# T2 sequence (P55884 whole entry): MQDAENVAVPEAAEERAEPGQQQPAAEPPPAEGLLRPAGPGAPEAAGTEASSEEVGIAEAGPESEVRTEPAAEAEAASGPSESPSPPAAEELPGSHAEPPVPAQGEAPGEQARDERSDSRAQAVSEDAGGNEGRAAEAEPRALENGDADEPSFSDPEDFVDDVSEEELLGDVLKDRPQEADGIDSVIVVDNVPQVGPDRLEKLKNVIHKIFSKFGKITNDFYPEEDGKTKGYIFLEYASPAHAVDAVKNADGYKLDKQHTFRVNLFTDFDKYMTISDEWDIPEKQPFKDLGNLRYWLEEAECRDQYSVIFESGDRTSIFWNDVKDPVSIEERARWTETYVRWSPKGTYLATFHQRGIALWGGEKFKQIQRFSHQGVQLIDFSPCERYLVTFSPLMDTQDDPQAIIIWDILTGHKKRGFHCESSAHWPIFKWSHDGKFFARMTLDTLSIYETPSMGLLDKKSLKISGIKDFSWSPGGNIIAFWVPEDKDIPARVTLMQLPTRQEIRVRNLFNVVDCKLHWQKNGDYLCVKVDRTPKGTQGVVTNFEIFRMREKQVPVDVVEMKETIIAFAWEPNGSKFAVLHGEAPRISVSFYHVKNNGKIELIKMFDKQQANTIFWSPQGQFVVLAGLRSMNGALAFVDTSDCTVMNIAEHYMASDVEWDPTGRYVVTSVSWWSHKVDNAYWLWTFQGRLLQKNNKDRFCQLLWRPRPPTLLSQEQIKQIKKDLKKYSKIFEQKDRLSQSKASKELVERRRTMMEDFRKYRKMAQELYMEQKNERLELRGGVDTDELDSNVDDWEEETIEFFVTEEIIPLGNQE
# [3] = molecular target: T3, HeLa cell extract proteins (Homo sapiens, UniProt Q9Y266); details: protein NUDC; HeLa
# T3 construct: endogenous in cells; host or cells: HeLa cell extract
# T3 sequence (Q9Y266 whole entry): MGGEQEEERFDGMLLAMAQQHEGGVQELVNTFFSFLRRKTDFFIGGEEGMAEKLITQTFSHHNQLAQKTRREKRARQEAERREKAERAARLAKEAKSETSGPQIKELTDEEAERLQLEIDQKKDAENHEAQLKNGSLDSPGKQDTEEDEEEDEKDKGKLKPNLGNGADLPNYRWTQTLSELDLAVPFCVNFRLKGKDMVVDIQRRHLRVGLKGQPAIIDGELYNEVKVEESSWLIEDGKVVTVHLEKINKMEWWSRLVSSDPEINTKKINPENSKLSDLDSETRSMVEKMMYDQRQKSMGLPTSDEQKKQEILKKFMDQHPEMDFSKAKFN
# [4] = molecular target: T4, HeLa cell extract proteins (Homo sapiens, UniProt O95433); details: protein AHSA1; HeLa
# T4 construct: endogenous in cells; host or cells: HeLa cell extract
# T4 sequence (O95433 whole entry): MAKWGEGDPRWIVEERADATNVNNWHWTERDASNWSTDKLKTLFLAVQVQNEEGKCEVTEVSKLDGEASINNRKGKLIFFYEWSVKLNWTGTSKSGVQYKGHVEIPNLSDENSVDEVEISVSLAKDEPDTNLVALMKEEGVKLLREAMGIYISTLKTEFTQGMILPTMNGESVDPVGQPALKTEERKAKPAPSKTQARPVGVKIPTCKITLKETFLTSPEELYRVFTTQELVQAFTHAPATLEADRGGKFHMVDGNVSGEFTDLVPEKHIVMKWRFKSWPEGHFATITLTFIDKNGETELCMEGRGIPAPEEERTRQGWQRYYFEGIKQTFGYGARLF
# [5] = molecular target: T5, HeLa cell extract proteins (Homo sapiens, UniProt Q96RQ3); details: captured protein MCCC1; HeLa
# T5 construct: endogenous in cells; host or cells: HeLa cell extract
# T5 sequence (Q96RQ3 42-725): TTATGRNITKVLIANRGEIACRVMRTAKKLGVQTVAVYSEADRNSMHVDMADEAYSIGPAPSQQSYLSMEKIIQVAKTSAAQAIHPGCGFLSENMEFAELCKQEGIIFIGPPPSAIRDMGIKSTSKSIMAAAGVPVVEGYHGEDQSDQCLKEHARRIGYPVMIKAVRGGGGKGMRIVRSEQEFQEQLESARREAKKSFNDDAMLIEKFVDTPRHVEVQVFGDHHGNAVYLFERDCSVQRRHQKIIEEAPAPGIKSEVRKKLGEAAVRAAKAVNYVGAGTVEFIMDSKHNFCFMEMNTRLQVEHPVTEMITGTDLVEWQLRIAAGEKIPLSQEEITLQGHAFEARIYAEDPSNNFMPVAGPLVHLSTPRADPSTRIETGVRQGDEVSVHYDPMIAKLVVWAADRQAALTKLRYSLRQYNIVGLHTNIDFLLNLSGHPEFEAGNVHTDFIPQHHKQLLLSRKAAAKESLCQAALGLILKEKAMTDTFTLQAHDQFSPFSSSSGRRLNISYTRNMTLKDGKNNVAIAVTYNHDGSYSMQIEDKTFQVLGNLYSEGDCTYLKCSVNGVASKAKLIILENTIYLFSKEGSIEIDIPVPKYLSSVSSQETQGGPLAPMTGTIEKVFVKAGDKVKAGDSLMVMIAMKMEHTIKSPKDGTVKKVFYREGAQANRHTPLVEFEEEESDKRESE
# [6] = molecular target: T6, HeLa cell extract proteins (Homo sapiens, UniProt Q96S59)
# T6 construct: endogenous in cells; host or cells: HeLa cell extract
# T6 sequence (Q96S59 whole entry): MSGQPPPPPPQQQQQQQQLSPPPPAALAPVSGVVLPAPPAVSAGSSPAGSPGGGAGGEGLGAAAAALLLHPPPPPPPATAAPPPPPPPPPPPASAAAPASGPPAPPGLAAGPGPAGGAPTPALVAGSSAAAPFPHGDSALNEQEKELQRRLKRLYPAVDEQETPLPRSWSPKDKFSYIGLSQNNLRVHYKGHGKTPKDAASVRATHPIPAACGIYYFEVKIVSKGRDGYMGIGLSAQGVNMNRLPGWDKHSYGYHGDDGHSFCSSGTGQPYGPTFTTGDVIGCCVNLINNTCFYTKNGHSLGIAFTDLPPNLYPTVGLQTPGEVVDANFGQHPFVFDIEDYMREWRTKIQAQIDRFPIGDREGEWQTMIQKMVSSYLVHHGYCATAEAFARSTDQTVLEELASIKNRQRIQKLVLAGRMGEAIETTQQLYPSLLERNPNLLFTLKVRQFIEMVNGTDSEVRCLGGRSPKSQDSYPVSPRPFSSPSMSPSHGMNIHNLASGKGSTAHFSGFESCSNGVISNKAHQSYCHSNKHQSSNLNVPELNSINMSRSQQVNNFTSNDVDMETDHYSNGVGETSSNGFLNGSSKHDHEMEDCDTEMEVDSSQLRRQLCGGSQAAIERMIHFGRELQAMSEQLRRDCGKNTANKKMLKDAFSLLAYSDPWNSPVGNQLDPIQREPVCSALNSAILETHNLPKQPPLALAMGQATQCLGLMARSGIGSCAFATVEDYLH
# [7] = molecular target: T7, HeLa cell extract proteins (Homo sapiens, UniProt O75131)
# T7 construct: endogenous in cells; host or cells: HeLa cell extract
# T7 sequence (O75131 whole entry): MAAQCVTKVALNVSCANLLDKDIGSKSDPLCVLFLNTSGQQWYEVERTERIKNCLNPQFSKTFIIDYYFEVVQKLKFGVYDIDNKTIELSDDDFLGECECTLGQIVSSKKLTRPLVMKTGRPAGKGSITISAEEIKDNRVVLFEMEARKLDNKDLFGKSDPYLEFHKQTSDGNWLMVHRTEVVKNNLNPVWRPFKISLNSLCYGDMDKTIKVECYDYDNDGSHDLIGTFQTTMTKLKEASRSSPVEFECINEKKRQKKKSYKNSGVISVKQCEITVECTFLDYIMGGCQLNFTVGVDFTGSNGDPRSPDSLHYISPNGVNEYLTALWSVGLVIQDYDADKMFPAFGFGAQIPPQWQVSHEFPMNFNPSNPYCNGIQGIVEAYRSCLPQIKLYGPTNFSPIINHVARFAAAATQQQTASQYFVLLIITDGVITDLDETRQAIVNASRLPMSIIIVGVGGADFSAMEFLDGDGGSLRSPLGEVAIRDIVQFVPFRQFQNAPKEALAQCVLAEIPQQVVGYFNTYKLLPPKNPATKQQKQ
# [8] = molecular target: T8, HeLa cell extract proteins (Homo sapiens, UniProt Q15386)
# T8 construct: endogenous in cells; host or cells: HeLa cell extract
# T8 sequence (Q15386 1-1083): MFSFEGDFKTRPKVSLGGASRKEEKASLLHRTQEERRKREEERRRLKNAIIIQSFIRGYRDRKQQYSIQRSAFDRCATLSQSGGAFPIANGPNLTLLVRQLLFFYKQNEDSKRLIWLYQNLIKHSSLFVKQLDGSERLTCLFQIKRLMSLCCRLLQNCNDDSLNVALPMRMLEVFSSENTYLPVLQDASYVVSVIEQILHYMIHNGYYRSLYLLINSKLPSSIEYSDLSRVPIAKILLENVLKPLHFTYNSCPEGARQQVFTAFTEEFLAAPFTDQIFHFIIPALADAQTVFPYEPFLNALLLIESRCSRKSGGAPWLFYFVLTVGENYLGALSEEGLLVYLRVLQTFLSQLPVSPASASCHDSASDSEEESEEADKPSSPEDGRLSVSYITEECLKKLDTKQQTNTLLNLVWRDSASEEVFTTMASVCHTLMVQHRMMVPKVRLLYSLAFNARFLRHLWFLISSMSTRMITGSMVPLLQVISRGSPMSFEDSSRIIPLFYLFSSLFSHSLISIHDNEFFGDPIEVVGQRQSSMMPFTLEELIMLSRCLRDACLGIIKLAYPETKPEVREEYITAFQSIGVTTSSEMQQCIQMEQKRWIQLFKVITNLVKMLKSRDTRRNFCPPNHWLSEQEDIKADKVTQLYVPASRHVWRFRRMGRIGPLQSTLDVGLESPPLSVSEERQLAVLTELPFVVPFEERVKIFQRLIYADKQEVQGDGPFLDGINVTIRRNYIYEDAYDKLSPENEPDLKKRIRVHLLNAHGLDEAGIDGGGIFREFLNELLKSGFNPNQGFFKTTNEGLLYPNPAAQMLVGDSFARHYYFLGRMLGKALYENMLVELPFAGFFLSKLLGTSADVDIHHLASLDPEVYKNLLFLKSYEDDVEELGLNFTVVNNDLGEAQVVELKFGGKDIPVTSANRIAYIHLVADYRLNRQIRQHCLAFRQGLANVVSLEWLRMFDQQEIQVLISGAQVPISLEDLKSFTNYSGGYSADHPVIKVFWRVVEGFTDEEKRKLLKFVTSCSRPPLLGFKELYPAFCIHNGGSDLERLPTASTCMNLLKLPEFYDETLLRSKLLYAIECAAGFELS
Structure (SMILES),fold changes relative to vehicle control [1] [fold],fold changes relative to vehicle control [2],fold changes relative to vehicle control [3],fold changes relative to vehicle control [4],fold changes relative to vehicle control [5],fold changes relative to vehicle control [6],fold changes relative to vehicle control [7],fold changes relative to vehicle control [8],"fold changes relative to vehicle control ([6]; protein RANBP9, HeLa)","fold changes relative to vehicle control ([7]; HeLa, protein CPNE3)","fold changes relative to vehicle control ([8]; HeLa, protein UBE3C)"
Nc1nc2cccc(-c3ccccc3)c2n1Cc1ccc(Cl)c(Cl)c1 [compound 3],1.26,1.2,1.06,1.24,1.21,–,–,–,–,–,–
"Nc1nc2[nH]cc(CCc3ccc(C(=O)N[C@@H](CCC(=O)O)C(=O)O)cc3)c2c(=O)[nH]1 [PTX, pemetrexed]",–,–,–,–,–,1.05,0.77,0.96,–,–,–
"Nc1nc2c(c(=O)[nH]1)N(C=O)C(CNc1ccc(C(=O)N[C@@H](CCC(=O)O)C(=O)O)cc1)CN2 (stereo partly drawn) [LEU, leucovorin]",–,–,–,–,–,–,–,–,1.03,1.23,0.91
CCCCCCOc1cccc(Cc2cnc(N)nc2N)c1 [compound 2],2.8,1.68,1.92,1.63,1.15,–,–,–,–,–,–
NCCOCCOCC(=O)Nc1nc2ncc(CNc3ccc(C(=O)NC(CCC(=O)O)C(=O)O)cc3)nc2c(=O)[nH]1 (stereo not drawn) [compound 6],–,–,–,–,–,–,–,–,0.96,0.91,1.01
CCCCCCOc1ccc(Cc2cnc(N)nc2N)cc1 [compound 1],1.76,0.99,1.23,1.17,1.03,–,–,–,–,–,–
NCCCNc1ccc(C(=O)NC(CCC(=O)O)C(=O)O)cc1 (stereo not drawn) [compound 7],–,–,–,–,–,–,–,–,1.65,0.85,1.04
